In ChEMBL document CHEMBL3885861, “Open TG-GATES”:

Organism: Rattus norvegicus
Test: Open TG-GATES - Regimen: Single
Format: toxicity, organism-based, Sprague-Dawley
Set-up: regimen Single, gender Male, age 6 weeks
Details: in vivo, po, 100 mg/kg, route gavage, dose level Low; for APTT / Bas / Eos / Fbg / Hb / Ht / Lym / MCH / MCHC / MCV / Mono / Neu / PT / Plat / RBC / Ret / WBC: tissue Blood; for KIDNEY_L / KIDNEY_R / KIDNEY_TOTAL: tissue Kidney; for LIVER: tissue Liver; for A/G / ALP / ALT / AST / BUN / CRE / Ca / Cl / DBIL / GLC / IP / K / LDH / Na / PL / RALB / TBIL / TC / TG / TP / gamma-GTP: tissue Plasma

Which TERMINAL_BW (9 h) does the source give for `CCC1(c2ccccc2)C(=O)NC(=O)NC1=O` [PHENOBARBITAL] here?
Its TERMINAL_BW is 220.3 g.

And the APTT (9 h)?
The APTT was 19.6 s.

What about the Bas (9 h) of the same compound?
Its Bas is 0.4%.

What about the Eos (9 h) of the same compound?
The Eos was 0.8%.

And the Fbg (9 h)?
The Fbg was 215.6 mg/dL.

And the Hb (9 h)?
The Hb was 13.8 g/dL.

What about the Ht (9 h) of the same compound?
Its Ht is 38.2%.

And the Lym (9 h)?
Its Lym is 74.6%.

What about the MCH (9 h) of the same compound?
Its MCH is 21.6 pg.

What about the MCHC (9 h) of the same compound?
Its MCHC is 36.2%.

What about the MCV (9 h) of the same compound?
Its MCV is 59.6 fL.

And the Mono (9 h)?
Its Mono is 2.6%.

What about the Neu (9 h) of the same compound?
Its Neu is 20.6%.

What about the PT (9 h) of the same compound?
Its PT is 12.4 s.

What about the Plat (9 h) of the same compound?
The Plat was 124.9 x10_4/uL.

What about the RBC (9 h) of the same compound?
Its RBC is 640.6 x10_4/ul.

What about the Ret (9 h) of the same compound?
The Ret was 7.4%.

And the WBC (9 h)?
Its WBC is 90 x10_2/uL.

And the KIDNEY_L (9 h)?
The KIDNEY_L was 1 g.

What about the KIDNEY_R (9 h) of the same compound?
The KIDNEY_R was 1 g.

What about the KIDNEY_TOTAL (9 h) of the same compound?
The KIDNEY_TOTAL was 1.9 g.

And the LIVER (9 h)?
Its LIVER is 9.2 g.

What about the A/G (9 h) of the same compound?
The A/G was 1.6.

What about the ALP (9 h) of the same compound?
Its ALP is 848.2 IU/L.

What about the ALT (9 h) of the same compound?
Its ALT is 25.2 IU/L.

And the AST (9 h)?
Its AST is 60.4 IU/L.

And the BUN (9 h)?
Its BUN is 10.4 mg/dL.

And the CRE (9 h)?
The CRE was 0.3 mg/dL.

What about the Ca (9 h) of the same compound?
The Ca was 10.4 mg/dL.

And the Cl (9 h)?
The Cl was 101 meq/L.

And the DBIL (9 h)?
The DBIL was 0.064 mg/dL.

What about the GLC (9 h) of the same compound?
Its GLC is 196.4 mg/dL.

What about the IP (9 h) of the same compound?
The IP was 8.7 mg/dL.

What about the K (9 h) of the same compound?
Its K is 3.9 meq/L.

And the LDH (9 h)?
The LDH was 154.4 IU/L.

What about the Na (9 h) of the same compound?
Its Na is 140.4 meq/L.

And the PL (9 h)?
The PL was 129.8 mg/dL.

What about the RALB (9 h) of the same compound?
The RALB was 3.4 g/dL.

What about the TBIL (9 h) of the same compound?
Its TBIL is 0.1 mg/dL.

What about the TC (9 h) of the same compound?
Its TC is 64.4 mg/dL.

And the TG (9 h)?
Its TG is 55.6 mg/dL.

What about the TP (9 h) of the same compound?
The TP was 5.5 g/dL.

And the gamma-GTP (9 h)?
Its gamma-GTP is 0.6 IU/L.

What about the TERMINAL_BW (24 h) of the same compound?
Its TERMINAL_BW is 234.5 g.

And the APTT (24 h)?
The APTT was 21 s.

And the Bas (24 h)?
Its Bas is 0.8%.

And the Eos (24 h)?
The Eos was 1%.

What about the Fbg (24 h) of the same compound?
The Fbg was 217.8 mg/dL.

What about the Hb (24 h) of the same compound?
Its Hb is 13.5 g/dL.

What about the Ht (24 h) of the same compound?
Its Ht is 37.2%.

And the Lym (24 h)?
The Lym was 77.8%.

What about the MCH (24 h) of the same compound?
The MCH was 22.2 pg.

And the MCHC (24 h)?
The MCHC was 36.2%.

What about the MCV (24 h) of the same compound?
Its MCV is 61.3 fL.

What about the Mono (24 h) of the same compound?
Its Mono is 2.6%.

What about the Neu (24 h) of the same compound?
The Neu was 17.8%.

And the PT (24 h)?
Its PT is 11.8 s.

What about the Plat (24 h) of the same compound?
Its Plat is 122.9 x10_4/uL.

And the RBC (24 h)?
Its RBC is 607.6 x10_4/ul.

What about the Ret (24 h) of the same compound?
Its Ret is 6.6%.

And the WBC (24 h)?
Its WBC is 114.9 x10_2/uL.

And the KIDNEY_L (24 h)?
Its KIDNEY_L is 1.1 g.

And the KIDNEY_R (24 h)?
Its KIDNEY_R is 1.1 g.

And the KIDNEY_TOTAL (24 h)?
Its KIDNEY_TOTAL is 2.3 g.

What about the LIVER (24 h) of the same compound?
Its LIVER is 12 g.

What about the A/G (24 h) of the same compound?
The A/G was 1.6.

What about the ALP (24 h) of the same compound?
The ALP was 1006.8 IU/L.

And the ALT (24 h)?
The ALT was 39 IU/L.

And the AST (24 h)?
Its AST is 70.6 IU/L.

And the BUN (24 h)?
The BUN was 14.4 mg/dL.

And the CRE (24 h)?
The CRE was 0.4 mg/dL.

And the Ca (24 h)?
The Ca was 10.8 mg/dL.

What about the Cl (24 h) of the same compound?
The Cl was 102.4 meq/L.

And the DBIL (24 h)?
The DBIL was 0.062 mg/dL.

What about the GLC (24 h) of the same compound?
The GLC was 183.4 mg/dL.

And the IP (24 h)?
Its IP is 7.3 mg/dL.

And the K (24 h)?
Its K is 3.8 meq/L.

What about the LDH (24 h) of the same compound?
Its LDH is 181.4 IU/L.

What about the Na (24 h) of the same compound?
Its Na is 142 meq/L.

What about the PL (24 h) of the same compound?
Its PL is 132.6 mg/dL.

And the RALB (24 h)?
The RALB was 3.4 g/dL.

And the TBIL (24 h)?
Its TBIL is 0.1 mg/dL.

And the TC (24 h)?
The TC was 64 mg/dL.

And the TG (24 h)?
The TG was 105.4 mg/dL.

What about the TP (24 h) of the same compound?
Its TP is 5.6 g/dL.

And the gamma-GTP (24 h)?
Its gamma-GTP is 0.8 IU/L.
